Experiments:
[1] = Degradation on heating of drug suspensions in aqueous γ-cyclodextrin solutions (autoclave vs 95° C.); format: physicochemical; details: autoclaving with γ-cyclodextrin
Description: Diclofenac is suspended in aqueous solutions containing from 1% (w/v) to 15% (w/v) γ-cyclodextrin.

[2] = Dehydration of dexamethasone to 16,17-unsaturated dexamethasone and dexamethasone enol aldehydes during preparation/autoclaving of eye drops; format: physicochemical; details: aqueous eye drops
Protocol: The dehydration of dexamethasone during preparation of the aqueous dexamethasone eye drops described in Example 1 (formulations F1, F2, F3, F4, F5 and F6) is determined by quantitative determination of 16,17-unsaturated dexamethasone and the dexamethasone enol aldehydes in the eye drops after manufacturing. Formulations F12, F13 and F14 are prepared as described in F1, that is by dissolving or suspending the ingredients, including dexamethasone, in pure water and autoclaving the mixture in sealed vial at 121° C. for 20 minutes. The substantially clear aqueous vials are removed from the autoclave and become cloudy upon cooling at ambient conditions. […] F13 comprises dexamethasone and γ-cyclodextrin suspended in pure water. F14 comprises dexamethasone suspended in pure water. The effect of excipients and preparation methods on the formation of 16,17-unsaturated dexamethasone and the dexamethasone enol aldehydes is presented as the fraction (in %) of dexamethasone degraded to form 16,17-unsaturated dexamethasone and the dexamethasone enol aldehydes.
The amount of 16,17-unsaturated dexamethasone and dexamethasone enol aldehydes formed, presented as the fraction (in %) of dexamethasone degraded to form 16,17-unsaturated dexamethasone and dexamethasone enol aldehydes, in aqueous eye drops after no autoclaving (i.e., heating to 121° C. for 20 minutes) once, twice and three times is shown in Table 3. […]

Compound	effect of γ-cyclodextrin on aqueous diclofenac solutions during autoclaving [1]	fraction of dexamethasone degraded to 16,17-unsaturated dexamethasone and dexamethasone enol aldehydes ([2]; pH 2.5, 0 autoclaving cycles (121° C., 20 min)) [%]	fraction of dexamethasone degraded to 16,17-unsaturated dexamethasone and dexamethasone enol aldehydes ([2]; pH 2.5, 1 autoclaving cycle (121° C., 20 min)) [%]	fraction of dexamethasone degraded to 16,17-unsaturated dexamethasone and dexamethasone enol aldehydes ([2]; pH 2.5, 2 autoclaving cycles (121° C., 20 min)) [%]	fraction of dexamethasone degraded to 16,17-unsaturated dexamethasone and dexamethasone enol aldehydes ([2]; pH 2.5, 3 autoclaving cycles (121° C., 20 min)) [%]	fraction of dexamethasone degraded to 16,17-unsaturated dexamethasone and dexamethasone enol aldehydes ([2]; pH 4.0, 0 autoclaving cycles (121° C., 20 min)) [%]	fraction of dexamethasone degraded to 16,17-unsaturated dexamethasone and dexamethasone enol aldehydes ([2]; pH 4.0, 1 autoclaving cycle (121° C., 20 min)) [%]	fraction of dexamethasone degraded to 16,17-unsaturated dexamethasone and dexamethasone enol aldehydes ([2]; pH 4.0, 2 autoclaving cycles (121° C., 20 min)) [%]	fraction of dexamethasone degraded to 16,17-unsaturated dexamethasone and dexamethasone enol aldehydes ([2]; pH 4.0, 3 autoclaving cycles (121° C., 20 min)) [%]	fraction of dexamethasone degraded to 16,17-unsaturated dexamethasone and dexamethasone enol aldehydes ([2]; pH 5.5, 0 autoclaving cycles (121° C., 20 min)) [%]	fraction of dexamethasone degraded to 16,17-unsaturated dexamethasone and dexamethasone enol aldehydes ([2]; pH 5.5, 1 autoclaving cycle (121° C., 20 min)) [%]	fraction of dexamethasone degraded to 16,17-unsaturated dexamethasone and dexamethasone enol aldehydes ([2]; pH 5.5, 2 autoclaving cycles (121° C., 20 min)) [%]	fraction of dexamethasone degraded to 16,17-unsaturated dexamethasone and dexamethasone enol aldehydes ([2]; pH 5.5, 3 autoclaving cycles (121° C., 20 min)) [%]	fraction of dexamethasone degraded to 16,17-unsaturated dexamethasone and dexamethasone enol aldehydes ([2]; pH 7.0, 0 autoclaving cycles (121° C., 20 min)) [%]	fraction of dexamethasone degraded to 16,17-unsaturated dexamethasone and dexamethasone enol aldehydes ([2]; pH 7.0, 1 autoclaving cycle (121° C., 20 min)) [%]	fraction of dexamethasone degraded to 16,17-unsaturated dexamethasone and dexamethasone enol aldehydes ([2]; pH 7.0, 2 autoclaving cycles (121° C., 20 min)) [%]	fraction of dexamethasone degraded to 16,17-unsaturated dexamethasone and dexamethasone enol aldehydes ([2]; pH 7.0, 3 autoclaving cycles (121° C., 20 min)) [%]
O=C(O)Cc1ccccc1Nc1c(Cl)cccc1Cl [Diclofenac, diclofenac]	intense coloring	–	–	–	–	–	–	–	–	–	–	–	–	–	–	–	–
C[C@@H]1C[C@H]2[C@@H]3CCC4=CC(=O)C=C[C@]4(C)[C@@]3(F)[C@@H](O)C[C@]2(C)[C@@]1(O)C(=O)CO [dexamethasone]	–	0.08	1.06	2.29	3.12	0.08	1.14	2.19	3.03	0.08	1.22	2.27	3.46	0.08	0.86	1.64	2.57

From US12521448B2, “Preparation of solid cyclodextrin complexes for ophthalmic active pharmaceutical ingredient delivery” (Oculis Operations Sarl, priority 2016, dated 2026)
